# Assay results as given in patent EP0136464A2, “Therapeutic compositions for oral use containing stable S-Adenosy1-L-Methionine salts” (BIORESEARCH S.p.A., priority 1983, dated 1985).
# Read-outs that look alike come from different tables or passages of the source.
# Key:
# [1] = test system: Reaction to heat, tail flick test in the rat; experiment: Reaction to heat, tail flick test in the rat (analgesic activity); assay type: in vivo, male Sprague-Dawley rats
# Experimental: (§1) In the experiments carried out on animals which received the SAMe orally, the drug was dissolved in physiological solution and administered by gastric probe in a volume of 0.5 ml/100 g of body weight. An equal volume of physiological solution was administered to the controls.
# (§2) In the experiments in which SAMe was administered intraduodenally, the animals anesthetised with ether were subjected to laparotomy to allow the insertion into the duodenum of gelatin capsules (size 4) containing the product.
# (§3) After inserting the capsule, the duodenum was sutured carefully so as not to traumatise the tissue and was then returned to its seat, the muscular and cutaneous layers then being re-composed and sutured.
# (§4) The control animals received an empty gelatin capsule by the same procedure.
# 1) Reaction to heat, tail flick test in the rat.
# The analgesic activity of SAMe was evaluated in male Sprague-Dawley rats of about 190 g weight by the method of D'Amour and Smith (J. Pharmacol. Exp. Theor. 71, 74 (1941)).
# The SAMe was administered either orally or in gelatin capsules into the duodenum in doses of 50 and 100 mg/kg.
# Morphine was used as the comparison drug and was administered under the cutis at a dose of 5 mg/kg.
# The analgesic activity was determined 30, 60 and 120 minutes after administration of the drugs.
# The results represent the mean + S.E. for the number of animals indicated in parentheses. The morphine was administered under the cutis to rats which received one empty capsule into the duodenum.
# [2] = SAMe concentration in portal and aortic plasma after intestinal or oral (gastric probe) administration; assay type: in vivo, male Sprague-Dawley rats; details: rat, SAMe-tri-p. toluenesulphonate, reduced by control values; for concentration at 1 h: 60 min; for concentration at 1.5 h: 90 min; for concentration at 2 h: 120 min; for concentration at 3 h: 180 min; for concentration at 4 h: 240 min
# Experimental: The values given relate to tests carried out with SAMe-tri-p. toluenesulphonate, but substantially identical results were obtained with other known SAMe salts.
# The drug concentrations in the portal or aortic plasma were evaluated as the absorption parameters.
# The experiment was carried out on 72 male Sprague-Dawley rats of weight 210-260 g, which had fasted since the previous evening.
# The animals, anesthetised with ether, were operated on in order to insert a capsule into the proximal jejunum. The incision in the intestinal wall was closed by ligature, and the animals were sutured.
# The treatment scheme was as follows: • Intestinal administration: A capsule containing a weighed SAMe quantity corresponding to a dose of 32 mg/kg of body weight was inserted into the intestine, and 5 ml of H20/kg were administered by means of a gastric probe. • Oral administration: An empty capsule was inserted into the intestine, and 32 mg of SAMe/kg in aqueous solution (5 ml/kg) were • administered by means of a gastric probe. Controls: An empty capsule was inserted into the intestine, and 5 ml of H20/kg of body weight were administered by means of a gastric probe.
# After 10, 20, 40, 60, 90, 120, 180 and 240 minutes from administration, 3 animals were sacrificed at a time in order to withdraw portal and aortic blood.
# The SAMe concentrations in the plasma were determined by the Baldessarini and Kopin method (J. Neuroch. 13: 769, 1966).
# The values represent the mean + standard error of 3 observations, reduced by the values found for the controls.
# [3] = test system: Edema induced by carrageen in the rat; experiment: Edema induced by carrageen in the rat (anti-inflammatory activity); assay type: in vivo, Male Sprague-Dawley rats
# Experimental: as §1, §2, §3, §4
# The antiphlogistic and analgesic activity of SAMe were evaluated by the following tests: • A. Anti-inflammatory activity • 1) Edema induced by carrageen in the rat.
# Male Sprague-Dawley rats of about 170 g weight were used, having fasted since the evening preceding the experiment. Edema was induced by carrageen using the method described by Winter et al. (Proc. Soc. Exp. Biol. Med. 111, 544 (1962)).
# The SAMe was administered orally one hour before the carrageen at doses of 25 and 50 mg/kg, and intraduodenally at doses of 25 and 50 mg/kg 80 minutes before the phlogogenic agent. […]
# [4] = aortic plasma, po, 32 mg/kg aqueous solution by gastric probe, read-out: SAMe concentration in the plasma, Oral treatment, Aortic
# [5] = aortic plasma, 32 mg/kg capsule into proximal jejunum, read-out: SAMe concentration in the plasma, Intestinal treatment, Aortic
# [6] = portal plasma, po, 32 mg/kg aqueous solution by gastric probe, read-out: SAMe concentration in the plasma, Oral treatment, Portal
# [7] = portal plasma, 32 mg/kg capsule into proximal jejunum, read-out: SAMe concentration in the plasma, Intestinal treatment, Portal
structure (smiles),measurement,setting,value
"C[S+](CC[C@H](N)C(=O)[O-])C[C@H]1O[C@@H](n2cnc3c(N)ncnc32)[C@H](O)[C@@H]1O (stereo partly drawn) [SAMe, Sulpho-adenosyl-L-methionine]",Reaction time in minutes at various times after treatment,"[1]; administered into the duodenum, 50 mg/kg, 30 min",8.5 min
same,Reaction time in minutes at various times after treatment,"[1]; administered into the duodenum, 50 mg/kg, 60 min",8.2 min
same,Reaction time in minutes at various times after treatment,"[1]; administered into the duodenum, 50 mg/kg, 120 min",8.3 min
same,Reaction time in minutes at various times after treatment,"[1]; administered into the duodenum, 50 mg/kg, T0",4.8 min
same,Reaction time in minutes at various times after treatment,"[1]; administered into the duodenum, 100 mg/kg, 30 min",10.2 min
same,Reaction time in minutes at various times after treatment,"[1]; administered into the duodenum, 100 mg/kg, 60 min",9.6 min
same,Reaction time in minutes at various times after treatment,"[1]; administered into the duodenum, 100 mg/kg, 120 min",8.5 min
same,Reaction time in minutes at various times after treatment,"[1]; administered into the duodenum, 100 mg/kg, T0",5.0 min
same,Reaction time in minutes at various times after treatment,"[1]; administered orally, 50 mg/kg, 30 min",5.04 min
same,Reaction time in minutes at various times after treatment,"[1]; administered orally, 50 mg/kg, 60 min",4.09 min
same,Reaction time in minutes at various times after treatment,"[1]; administered orally, 50 mg/kg, 120 min",4.20 min
same,Reaction time in minutes at various times after treatment,"[1]; administered orally, 50 mg/kg, T0",4.60 min
same,Reaction time in minutes at various times after treatment,"[1]; administered orally, 100 mg/kg, 30 min",4.46 min
same,Reaction time in minutes at various times after treatment,"[1]; administered orally, 100 mg/kg, 60 min",4.73 min
same,Reaction time in minutes at various times after treatment,"[1]; administered orally, 100 mg/kg, 120 min",4.25 min
same,Reaction time in minutes at various times after treatment,"[1]; administered orally, 100 mg/kg, T0",4.41 min
same,"reaction times, difference between treated animals and the controls","[1]; intraduodenal administration, 100 mg/kg, 30 minutes after treatment",highly significant difference (P<0.01)
same,reaction time towards heat with respect to the controls,"[1]; oral administration, 50 and 100 mg/kg",not able to modify the reaction time towards heat
same,concentration at 10 min,[2]; [4],1100 ng/mL
same,concentration at 20 min,[2]; [4],780 ng/mL
same,concentration at 40 min,[2]; [4],720 ng/mL
same,concentration at 1 h,[2]; [4],700 ng/mL
same,concentration at 1.5 h,[2]; [4],680 ng/mL
same,concentration at 2 h,[2]; [4],680 ng/mL
same,concentration at 3 h,[2]; [4],660 ng/mL
same,concentration at 4 h,[2]; [4],640 ng/mL
same,concentration at 10 min,[2]; [5],13100 ng/mL
same,concentration at 20 min,[2]; [5],8630 ng/mL
same,concentration at 40 min,[2]; [5],4390 ng/mL
same,concentration at 1 h,[2]; [5],1870 ng/mL
same,concentration at 1.5 h,[2]; [5],1280 ng/mL
same,concentration at 2 h,[2]; [5],880 ng/mL
same,concentration at 3 h,[2]; [5],690 ng/mL
same,concentration at 4 h,[2]; [5],530 ng/mL
same,concentration at 10 min,[2]; [6],2930 ng/mL
same,concentration at 20 min,[2]; [6],870 ng/mL
same,concentration at 40 min,[2]; [6],840 ng/mL
same,concentration at 1 h,[2]; [6],610 ng/mL
same,concentration at 1.5 h,[2]; [6],540 ng/mL
same,concentration at 2 h,[2]; [6],520 ng/mL
same,concentration at 3 h,[2]; [6],520 ng/mL
same,concentration at 4 h,[2]; [6],460 ng/mL
same,concentration at 10 min,[2]; [7],25500 ng/mL
same,concentration at 20 min,[2]; [7],9390 ng/mL
same,concentration at 40 min,[2]; [7],2990 ng/mL
same,concentration at 1 h,[2]; [7],2440 ng/mL
same,concentration at 1.5 h,[2]; [7],1540 ng/mL
same,concentration at 2 h,[2]; [7],770 ng/mL
same,concentration at 3 h,[2]; [7],770 ng/mL
same,concentration at 4 h,[2]; [7],640 ng/mL
same,edema inhibition,"[3]; intraduodenal administration, 50 mg/kg, 80 minutes before the phlogogenic agent",statistically significant edema inhibition
same,edema development,"[3]; oral administration, 25 and 50 mg/kg, one hour before the carrageen, versus controls",not able to significantly modify the edema development
